# Test results: PMC9405123, “Design, Synthesis and Mechanistic Studies of Novel Isatin-Pyrazole Hydrazone Conjugates as Selective and Potent Bacterial MetAP Inhibitors” (Antibiotics, 2022)
# Columns and labels:
# E. coli [1] = assay: Growth inhibition screening (broth dilution); format: cell-based, Escherichia coli
# Outline: (§1)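 NCCLS broth dilution in nutrient broth with compounds from DMSO at a final 250 µg/mL. About 2.5 × 10^5 cells/mL were inoculated and incubated overnight at 37 °C. Growth was measured as turbidity at 590 nm.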
# LG20 = assay: MIC on environmental MDR isolate (microdilution)
# HK32 = assay: MIC on environmental MDR isolate (microdilution); details: Enterobacter cloacae
# S. aureus [2] = assay: Combination study with AMP or CIP
# Cytotoxicity assay (MTT) = format: cell-based; details: human, HEK293 cells, read-out: viable HEK293 cells
# Description: PS9 was tested for cytotoxicity against human embryonic kidney (HEK293) cells using a colorimetric MTT assay. HEK293 cells were grown at 37 °C in a humidified environment of 5% CO2 in DMEM media enriched with 10% FBS and 1% penicillin, streptomycin solution. HEK293 cells (1 × 10^4) were seeded in triplicate and incubated overnight in a CO2 incubator. After the treatment (5–200 μM) with PS9, the cells were kept for 48 h at 37 °C. Freshly prepared 5 mg/mL MTT was supplied to the samples and kept on incubation at 37 °C for 4–5 h. DMSO was added to solubilize the formazan crystals. A microplate reader (Bio-Rad, Hercules, CA, USA) was used for taking absorbance at 570 nm and all the experiments were done in triplicate.
# HK1 [3] = assay: MBC on environmental MDR isolate
# JST63 = assay: MIC on environmental MDR isolate (microdilution)
# B. subtilis [4] = assay: Minimum inhibitory concentration (broth dilution); format: cell-based; details: Bacillus subtilis, alone
# HK91 = assay: MBC on environmental MDR isolate; details: Ralstonia
# K. pneumoniae = assay: Growth inhibition screening (broth dilution); format: cell-based, Klebsiella pneumonia
# Outline: as §1
# EfMetAP1a = EfMetAP1a (Enterococcus faecalis, UniProt Q832M5); assay: MetAP enzyme inhibition, Morrison Ki (Met-AMC fluorescence); format: biochemical; details: Morrison Ki method
# B. subtilis [5] = assay: Combination study with AMP or CIP
# HK1 [6] = assay: MIC on environmental MDR isolate (microdilution)
# S. aureus [7] = assay: Minimum bactericidal concentration; format: cell-based, Staphylococcus aureus
# P. aeruginosa PAO1 = assay: In vivo antibacterial efficacy in infected larvae; details: P. aeruginosa infected larvae (1.5 × 10^9 CFU/mL); PS9 1000 μg/mL; 48 and 72 h
# B. subtilis [8] = assay: Growth inhibition screening (broth dilution); format: cell-based, Bacillus subtilis
# Outline: as §1
# JST68 = assay: MBC on environmental MDR isolate; details: Escherichia coli
# JST61 = assay: MIC on environmental MDR isolate (microdilution); details: Pantoea agglomerans
# G. mellonella larvae = assay: In vivo toxicological assessment, larval survival; parameters: species or system Galleria mellonella; details: 100, 250, 500, 750 and 1000 μg/mL; up to 5 days
# Description: The objective of this experiment was to assess the in vivo toxicity of PS9 using larvae of G. mellonella. […] The results obtained using Galleria larvae show a strong correlation to those generated using mammals and larvae have the advantage of producing results within 48 h, being inexpensive to purchase and house, and being free from the legal and ethical restrictions that affect mammalian testing. Larvae can also be used to assess toxicity and there is a strong correlation between the toxicity of compounds in larvae and mammals.
# PS9 stock solutions were prepared in DMSO (≤10%) and deionized water and maintained at room temperature.
# The greater wax G. mellonella sixth instar larvae were purchased from Live foods Direct Ltd. Sheffield, UK, and kept in the dark at 15 °C to suspend pupation. Healthy larvae with no appearance of melanization and weighing 150–250 mg were selected and stored in sterile nine cm Petri dishes containing wood shavings.
# HK43 = assay: MIC on environmental MDR isolate (microdilution); details: Exiguobacterium mexicanum
# E. coli [9] = assay: Time-kill curve assay; format: cell-based, Escherichia coli
# Description: A time–kill curve study was performed against bacterial strains (E. coli, E. faecalis, K. pneumonia and P. aeruginosa) to determine whether compound PS9 is bactericidal or bacteriostatic. MIC, 2MIC and 4MIC concentrations were employed for the time–kill assay as explained by Ali et al.. Untreated bacterial cells were used as a control. 100 µL aliquot was taken from each flask at regular intervals. An aliquot was further diluted in phosphate buffer saline solution and from each concentration 50 µL aliquot was inoculated on a nutrient agar plate and spread. Colonies were counted after the incubation of the plate at 37 °C. For each strain, the average (mean) colony count data (log10 CFU/mL) was plotted against time.
# E. faecalis = assay: Minimum inhibitory concentration (broth dilution); format: cell-based; details: Enterococcus faecalis, alone
# SH34 = assay: MIC on environmental MDR isolate (microdilution); details: Serratia marcescens
# EfMetAP1a, sequence (Q832M5 entry or part of it): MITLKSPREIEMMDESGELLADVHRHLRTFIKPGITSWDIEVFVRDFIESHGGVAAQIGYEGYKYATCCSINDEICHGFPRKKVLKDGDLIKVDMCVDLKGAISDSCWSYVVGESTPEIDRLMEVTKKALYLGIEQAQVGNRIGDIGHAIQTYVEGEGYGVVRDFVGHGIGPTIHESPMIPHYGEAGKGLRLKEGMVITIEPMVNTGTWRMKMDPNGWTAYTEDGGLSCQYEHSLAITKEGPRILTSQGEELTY
structure (smiles),measurement,setting,value
"O=C1Nc2ccc(F)cc2/C1=N\NC(=O)c1cc(-c2cccc(Br)c2)n[nH]1 [PS9, (E)-3-(3-Bromophenyl)-N′-(5-Fluoro-2-Oxoindolin-3-Ylidene)-1H-Pyrazole-5-Carbohydrazide]",inhibition at 250 µg/mL,E. coli [1]; Escherichia coli,≥ 94%
same,% Growth Inhibition at 250 µg/mL,E. coli [1]; listed as C00009,100%
same,MIC,"LG20; Enterobacter, isolate LG20 Enterobacter sp.",< 1 µg/mL
same,MIC lower than AMP and CTX,LG20; isolate LG20,32 times
same,MIC,HK32,64 µg/mL
same,MIC in Combination,S. aureus [2]; combination PS9 + AMP,4 µg/mL
same,MIC in Combination,S. aureus [2]; combination PS9 + CIP,8 µg/mL
same,FICI,S. aureus [2]; combination with AMP,0.37
same,FICI,S. aureus [2]; combination with CIP,0.28
same,"viability at 48 h, 100 µg/mL",Cytotoxicity assay (MTT); 100 µg/mL,> 90%
same,viability at 48 h,Cytotoxicity assay (MTT); up to 200 µg/mL,> 75%
same,MBC,HK1 [3],512 µg/mL
same,MIC,JST63,1000 µg/mL
same,MIC,B. subtilis [4],32 µg/mL
same,MBC,HK91,16 µg/mL
same,inhibition at 250 µg/mL,K. pneumoniae; Klebsiella pneumoniae,≥ 94%
same,% Growth Inhibition at 250 µg/mL,K. pneumoniae; listed as C00009,94%
same,Ki,EfMetAP1a,6.93 ± 0.45 µM
same,MIC in Combination,B. subtilis [5]; combination PS9 + AMP,4 µg/mL
same,MIC in Combination,B. subtilis [5]; combination PS9 + CIP,8 µg/mL
same,FICI,B. subtilis [5]; combination with AMP,0.62
same,Mode of Interaction,B. subtilis [5]; combination with AMP,Indifferent (in between 0.5 and 4)
same,FICI,B. subtilis [5]; combination with CIP,4.25
same,MIC,HK1 [6],16 µg/mL
same,MIC lower than standard antibiotic AMP,HK1 [6]; isolate HK1,16 times
same,MIC lower than third-generation drug CTX,HK1 [6]; isolate HK1,8 times
same,MBC/MIC Ratio (R*),S. aureus [7],8
same,MBC,S. aureus [7]; Staphylococcus aureus,256 µg/mL
same,effect on death of infected larvae,P. aeruginosa PAO1,small protective effect
same,inhibition at 250 µg/mL,B. subtilis [8]; Bacillus subtilis,≥ 94%
same,% Growth Inhibition at 250 µg/mL,B. subtilis [8]; listed as C00009,100%
same,MBC,JST68,256 µg/mL
same,MIC,JST61,1000 µg/mL
same,larval survival,G. mellonella larvae,100%
same,MIC,HK43,16 µg/mL
same,killing (log10 CFU/mL with time),"E. coli [9]; 4MIC, after 16 h",significant eradication
same,killing (log10 CFU/mL with time),"E. coli [9]; MIC, till 16 h",no 100% eradication
same,MIC,E. faecalis,8 µg/mL
same,MIC,SH34,> 1020 µg/mL
